From article PMC10177447, “4-[(5-Methyl-1H-pyrazol-3-yl)amino]-2H-phenyl-1-phthalazinone Inhibits MCPyV T Antigen Expression in Merkel Cell Carcinoma Independent of Aurora Kinase A” (Cancers, 2023)

Biological target: GSK3b (Homo sapiens, UniProt P49841)
Assay: commercial GSK3 kinase assay (Promega) with ADP-Glo luminescence readout, dose-response
Assay type: biochemical

Chain of GSK3b (P49841 whole entry): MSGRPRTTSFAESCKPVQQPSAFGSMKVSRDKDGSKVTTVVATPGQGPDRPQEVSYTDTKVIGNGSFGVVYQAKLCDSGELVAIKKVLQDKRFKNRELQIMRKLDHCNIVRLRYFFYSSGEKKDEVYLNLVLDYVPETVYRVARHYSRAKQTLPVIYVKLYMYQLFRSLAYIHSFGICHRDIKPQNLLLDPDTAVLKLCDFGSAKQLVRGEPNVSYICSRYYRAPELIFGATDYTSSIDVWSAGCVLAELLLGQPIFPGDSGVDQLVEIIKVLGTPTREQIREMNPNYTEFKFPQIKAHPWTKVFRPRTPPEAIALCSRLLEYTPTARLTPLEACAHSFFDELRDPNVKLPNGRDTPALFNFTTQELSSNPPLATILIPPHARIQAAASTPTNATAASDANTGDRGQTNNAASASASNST

IC50: 0.029 µM
Structure (SMILES): Cc1cc(Nc2nn(-c3ccccc3)c(=O)c3ccccc23)n[nH]1 [PHT, 4-[(5-methyl-1H-pyrazol-3-yl)amino]-2H-phenyl-1-phthalazinone]
